Data on two molecules can be found in article PMC8360864, “Benzylmalonyl-CoA dehydrogenase, an enzyme involved in bacterial auxin degradation” (Archives of Microbiology, 2021).

In data set [1] the target is T1, Benzylmalonyl-CoA dehydrogenase (IaaF) (Aromatoleum aromaticum, UniProt Q5P5Z9).
T1 construct: fusion protein of IaaF with a N-terminal Strep-tag
T1 sequence (Q5P5Z9 1-377): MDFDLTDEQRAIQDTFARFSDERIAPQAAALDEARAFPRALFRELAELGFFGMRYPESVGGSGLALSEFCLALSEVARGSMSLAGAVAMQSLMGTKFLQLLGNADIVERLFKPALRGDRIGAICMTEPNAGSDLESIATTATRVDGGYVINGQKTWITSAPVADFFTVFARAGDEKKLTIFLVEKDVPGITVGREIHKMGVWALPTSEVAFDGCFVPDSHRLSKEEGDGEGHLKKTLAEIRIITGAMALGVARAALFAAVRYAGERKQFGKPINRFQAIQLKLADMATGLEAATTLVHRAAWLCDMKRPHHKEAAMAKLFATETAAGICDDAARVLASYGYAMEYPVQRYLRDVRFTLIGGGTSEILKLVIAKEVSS
The data set can be described thus: product formation by HPLC and UV-Vis with purified enzyme. It counts as biochemical.

Substrate in the data set “purified protein”: CC(C)(COP(=O)(O)OP(=O)(O)OC[C@H]1O[C@@H](n2cnc3c(N)ncnc32)[C@H](O)[C@@H]1OP(=O)(O)O)[C@@H](O)C(=O)NCCC(=O)NCCSC(=O)C(Cc1ccccc1)C(=O)O
The data set is described as follows: purified protein. The conditions noted are these: FAD active site (GGG motif replacing YEG) proposed. The data set is classed as biochemical, Aromatoleum aromaticum.

In the case of `CC(C)(COP(=O)(O)OP(=O)(O)OC[C@H]1O[C@@H](n2cnc3c(N)ncnc32)[C@H](O)[C@@H]1OP(=O)(O)O)[C@@H](O)C(=O)NCCC(=O)NCCSC(=O)/C=C/c1ccccc1` [cinnamoyl-CoA], the “product formation by HPLC and UV-Vis with purified enzyme” value in data set [1] was “formation of a new CoA-thioester over time which was identified as cinnamoyl-CoA by its UV–Vis spectrum”.

B1: Benzylmalonyl-CoA dehydrogenase (IaaF) (Aromatoleum aromaticum EbN1) (protein)
chain: T1 sequence (Q5P5Z9 1-377)
notes: fusion protein of IaaF with a N-terminal Strep-tag
Take B1: in “purified protein”, the Michaelis constant (Km) worked out at 1.6 ± 0.3 µM.
